# Reference: a melting point compilation (Tetko et al.; mined from patent text by program, amines drawn as free bases though some values may be those of a salt)
row,SMILES,melting point
1,O=c1oc2c(-c3ccccc3)cccc2c(OCCN2CCOCC2)c1-c1ccccc1,106 to 108 °C
2,Cc1ccc(S(=O)(=O)Nc2ccccc2C#N)cc1,134 to 136 °C
3,Cc1c(Br)c(=O)n(C2CCCC2)c2nc(Nc3ccc(N4CCN(C(=O)OC(C)(C)C)CC4)cn3)ncc12,> 250 °C
4,COc1ccc(-c2c[nH]c(=S)n2O)cc1,150 °C
5,Cc1[nH]cnc1C=C1CCc2c(C)c3ccccc3n2C1=O,252 to 255 °C
6,CCC1(CC)c2cc(-c3nc4ccccc4s3)ccc2-c2ccc(N(c3ccc(O)cc3)c3ccc(O)cc3)cc21,294 to 297 °C
7,O=C(c1ccc([N+](=O)[O-])cc1[N+](=O)[O-])N1CCOCC1,159 to 161 °C
8,CCOC(=O)C(C)Oc1ccc(C)cc1 (centres undefined),78 to 82 °C
9,Cc1ccc(-c2nc3ccc(CN4CCN(C)CC4)cc3[nH]2)cc1C#Cc1ccc(NC2CC2)nn1,145 to 146 °C
10,O=C1C=C(c2cc(F)c(Br)cc2F)CC1,129 to 131 °C
11,Cc1cc(=O)c(OCC(=O)O)cn1C,240 to 242 °C
12,CN(CC(=O)O)C(=O)c1c(N)cccc1I,147 to 149 °C
13,Cc1ccc(C(=O)CC(=O)C(F)F)cc1Cl,40 to 41 °C
14,N#CN=C(Nc1cccnc1)NC(NC(=O)c1ccc(Cl)cc1)C1CCCCC1 (centres undefined),190 to 192 °C
15,COc1cc2c(cc1-c1nc3cc(-c4ccccc4)ccc3o1)oc1ccccc12,155 to 160 °C
16,CC(=O)O[C@H](CC(=O)c1ccccc1)C(=O)O,118 to 121 °C
17,Cc1cc(C(=O)Nc2ccc3cc(CN4CCCC4)cnc3c2C)ccc1-c1ccc(F)cc1,200 to 202 °C
18,CCCC(=Cc1cccs1)[N+](=O)[O-],25 to 25.5 °C
19,C#CCN(C)c1nccc(Oc2ccc(NC(=O)c3cc(F)cc(N4CCOCC4)c3)c3ccccc23)n1,97 to 98 °C
20,O=C1COC(Nc2ccc(C(O)(C(F)(F)F)C(F)(F)F)cc2)=N1,272 to 274 °C

row,SMILES,melting point
1,CN(N)C(=S)Nc1ccc(C#N)cc1,178 to 179 °C
2,Oc1cc2c(cc1O)CN(c1ncnc3c(N4CCOCC4)nc(Cl)nc13)CC2,187 to 189 °C
3,CC(CS)C(=O)N(CC(=O)O)C1CC1 (centres undefined),89 to 91 °C
4,CCc1nc(N)nc(N)c1CCC(C)c1cccc(C(F)(F)F)c1 (centres undefined),93 to 96 °C
5,CCCc1nn(C)c2c(=O)[nH]c(-c3cc([N+](=O)[O-])ccc3OCC)nc12,214 to 216 °C
6,CCC(=NNC(=O)c1ccccc1)c1cccnc1,169 °C
7,Nc1ccccc(Br)c1=O,133 to 135 °C
8,O=C(O)c1ccccc1C(=O)c1ccc(O)cc1,124 to 128 °C
9,CCN1CCC[C@H]1C(N)=O,107 to 108 °C
10,Cc1sc(-c2ccccc2)nc1COc1ccc(CO)cc1,94 to 95 °C
11,O=C(NCCN1CCCC1)N1CCN(c2ccccc2)CC1,81.5 to 84 °C
12,O=C(Nc1ccc(N2CCC2)nc1)c1cc2cc(C(F)(F)F)cnc2n1Cc1cccc(F)c1,243 to 244 °C
13,O=C1c2ccccc2CCn2c(SC(F)(F)F)ccc21,95 to 95.5 °C
14,NNc1ccc(Cl)cn1,116 to 122 °C
15,Nc1ccc(Cl)nc1I,148 °C
16,CC1(C)NC(=O)N(c2ccc(C#N)c(C(F)(F)F)c2)C1=N,228 °C
17,CCOC(=O)C1=Cc2cc(Br)c(F)cc2OC1C(F)(F)F (centres undefined),98.5 to 100 °C
18,O=C(Nc1ccc(C(F)(F)F)nc1C1CCN(CC=Cc2ccc(Cl)cc2)CC1)c1ccnc(Cl)c1,134 to 135 °C
19,CCOC(=O)Cc1ccc(-n2cccn2)cc1,49 °C
20,NC(=O)Cc1cccc(C(=O)c2ccccc2)c1N,178 to 180 °C

row,SMILES,melting point
1,C[C@]1(CN2CC=C(c3ccccc3)CC2)Cn2cc([N+](=O)[O-])nc2O1,200 to 201 °C
2,CC(C)c1ccccc1N1/C(=N\N=C/c2ccc(-c3ncn(-c4ccc(OC(F)(F)F)cc4)n3)cc2)SCC1C (centres undefined),201 to 204 °C
3,Cc1c[nH]c2c1C(=O)CC(c1ccccc1F)C2 (centres undefined),198 to 200 °C
4,O=C(O)c1cnn2c(C(F)(F)F)cc(-c3cccc(C(F)(F)F)c3)nc12,212 °C
5,NC(=S)N(c1ccccc1)c1cccc(NNC=O)c1,143 to 145 °C
6,Clc1ccc(Nc2nnc(Cc3ccncc3)c3ccncc23)cc1,220 to 221 °C
7,CC(=O)c1cnc(O)c(Cl)c1,188 to 189 °C
8,Cc1cccc(-c2[nH]c(C(C)C)nc2-c2cccc(-c3ccoc3)c2)n1,74 to 78 °C
9,O=C(NCC(F)(F)F)c1ccc(C=NO)cc1,153 to 154 °C
10,CCOC(=O)NOC(=O)c1ccc(C(=O)ONC(=O)OCC)cc1,130 °C
11,CC(=O)c1ccc(Oc2ccc(S(=O)(=O)C3CCCCC3)cn2)cc1,116 to 118 °C
12,Cc1ccc(C2=NOC(c3cc(Cl)cc(Cl)c3)(C(F)(F)F)C2)cc1Cl (centres undefined),97 to 99 °C
13,CCN(CC)c1cccc(CCC(N)=O)c1,59 °C
14,Fc1ccc(-c2onc3c(CBr)cccc23)cc1,145 to 148 °C
15,CSc1ccc(C(=O)CC(F)(F)F)cc1,118 to 120 °C
16,CS(=O)(=O)c1ccc(-c2cc(C(=O)c3cccnc3)sc2N2CCOCC2)cc1,122 °C
17,CC(=O)Nc1c(I)c(C(=O)O)c(I)c(C(=O)NCC(=O)O)c1I,201 to 202 °C
18,c1ccc2c(c1)CCc1ccccc1C21CO1,79 to 80 °C
19,CCC(=CC(CNC(=O)c1cccnc1O)=NO)C(C)[N+](=O)[O-] (centres undefined),92 to 95 °C

# Next, values leading:
row,melting point,SMILES
1,108 to 110 °C,CN(C(=O)OC(C)(C)C)c1cc(Oc2ccc(OCc3ccccc3)cc2)ccc1[N+](=O)[O-]
2,149 to 151 °C,CCOc1ccc(CC(NC(C)=O)C(=O)O)cc1OCC (centres undefined)
3,178 to 180 °C,COc1ccc(C(CC(=O)O)N2C(=O)c3cccc([N+](=O)[O-])c3C2=O)cc1 (centres undefined)
4,146 to 147 °C,CCCc1c(OCCCCCC(=O)c2cc(OC)c(OC)cc2F)ccc(C(=O)O)c1O
5,137 to 146 °C,CN(C)C(=O)C(C#N)=C(OC(=O)c1ccc(Cl)cc1[N+](=O)[O-])c1ccc(Cl)cc1[N+](=O)[O-]
6,180 to 181 °C,COc1ccc(Cn2cc3nc(Cl)nc(-c4c(F)cccc4OC)c3n2)cc1
7,208 to 209 °C,CCOCc1nc2c(N)nc3cc(-c4cccc(NS(C)(=O)=O)c4)cnc3c2n1CC(C)(C)F
8,141 °C,COC(=O)COc1ccc(NC(=O)CCc2ccc(C#N)cc2)cc1
9,164 °C,N#CCOc1cccc(CN2C(=O)c3cccc(NC(=O)c4ccc(Cl)s4)c3C2=O)c1
10,146 to 148 °C,COc1ccc(CNc2cc(Cl)ncc2C=O)cc1Cl
11,126 to 127 °C,CC(Cl)CCC(=O)Nc1c(C#N)cnn1-c1ccc(Cl)c(Cl)c1Cl (centres undefined)
12,256 to 259 °C,O=C(O)CN1C(=O)C(NC(CCc2ccccc2)C(=O)O)CCc2ccccc21 (centres undefined)
13,76 to 80 °C,CC(C)(C)c1cc(C[C@@H]2N[C@@H](c3ccccc3)[C@@H](c3ccccc3)OC2=O)ccc1O
14,148 to 150 °C,COc1cc(OC)c([N+](=O)[O-])c(C(=O)NC2CCN(C(c3ccccc3)c3ccccc3)CC2)c1
15,173 to 177 °C,COC(=O)c1cc2cc(C(=O)CN3CCN(c4ccncc4)CC3)ccc2o1
16,128 to 129 °C,CC(C)(C)OC(=O)NC(Cc1cc2ccccc2s1)C(=O)O (centres undefined)
17,117 to 118 °C,COCCNc1cc(Sc2ccc(Cl)cc2)nc(-c2ccc(OC)cc2)n1
18,177 to 178 °C,CC1COC(=O)N1c1cc(-c2ccnc(Nc3cccc(Cl)c3)n2)ccn1 (centres undefined)
19,189 to 190 °C,CCOC(=O)c1cc(NCc2ccccc2)c(Oc2ccc(OC)cc2)c(S(N)(=O)=O)c1
20,346 to 348 °C,COc1ccc(Cc2c(C)c3c(N)nc(N)nc3[nH]c2=O)cc1OC

row,melting point,SMILES
1,90 to 94 °C,COc1cc(C(=O)N2CCC(CCN3CCC(=C(c4ccccc4)c4ccccc4)CC3)(c3ccc(Cl)c(Cl)c3)C2)cc(OC)c1OC (centres undefined)
2,99 to 100 °C,CCOC(=O)c1c(-c2ccc(F)cc2)c2ccccn2c1C(C)C
3,134 to 135 °C,CCCCCC(CC(=O)Nc1cc(C(N)=O)ccc1C(C)(C)C)c1ccc(OCCOC)cc1OC (centres undefined)
4,174 °C,O=C(O)c1cc(S(=O)(=O)Nc2ccc(Cl)cc2Cl)ccc1Cl
5,143 to 144 °C,CCOC(=O)C1=C(C)NC(c2csc(C)n2)=NC1c1cccc(Cl)c1 (centres undefined)
6,193 to 194 °C,CCOC(=O)c1c(C)cc2c(c1C)c(=O)n(-c1ccccc1Cl)c(=O)n2CC(=O)NCCN(CC)CC
7,146 to 147 °C,COCCOC(=O)C1=C(C(F)F)NC(C)=C(C(=O)OC(C)C)C1c1cccc([N+](=O)[O-])c1 (centres undefined)
8,110 to 113 °C,CC1=C(C(=O)OCCOc2ccccc2)C(c2ccccc2C(F)(F)F)c2c(ccnc2OC(C)C)N1 (centres undefined)
9,96 to 98 °C,COc1cccc([C@H]2O[C@H](CC(=O)NCCCCCC(=O)O)C(=O)N(CC(C)(C)CO)c3ccc(Cl)cc32)c1OC
10,153 to 159 °C,COc1ccc(-c2cc(C(=O)NCCCCCCc3ccccc3)cc(-c3cccc(C(F)(F)F)c3)c2OCCO)cc1
11,178 to 180 °C,COc1cc2c(c3c1OC(C)(C)C3)C(c1cccc(C#N)c1)=NCC2(C)C
12,187 to 188 °C,CC1=C(C(=O)OC(C)C)C(c2cccc([N+](=O)[O-])c2)n2c(cc(=O)n2S(=O)(=O)c2ccccc2)N1 (centres undefined)
13,255 to 256 °C,CCc1cc(C(=O)c2ccccc2F)c(-n2c(C)nnc2CNC(=O)c2cc3ccccc3[nH]2)s1
14,> 300 °C,C=CCOc1cccc(-c2c(O)c3ccc(Cl)cc3[nH]c2=O)c1
15,155 °C,CCOC(=O)C1=C2NCCN2C(C)=C(C(C)=O)C1c1cccc([N+](=O)[O-])c1 (centres undefined)
16,74 to 77 °C,CC(C)(CCc1ccccc1)NCC(O)CO (centres undefined)
17,207 to 209 °C,CNc1ccc(C(=O)Nc2c(C)cccc2C)cn1
18,75 to 76 °C,COC(=O)c1cc(OC)c(OC)c([N+](=O)[O-])c1
19,170 to 171 °C,Cc1ccnc(C(=O)c2[nH]c3cc(Cl)ccc3c2NC(=O)CCN(C)C)c1
20,140 to 141 °C,COc1c(C)cnc(CS(=O)c2nc3ccccc3n2CCl)c1C (centres undefined)
